# Test results from US8846704B2, “Thiopyrimidine-based compounds and uses thereof” (YM Biosciences Austraila Pty Ltd, priority 2007, dated 2014).
# Assays:
# human JAK2 = target: T1, human JAK2 (Homo sapiens, UniProt O60674); experiment: Alphascreen tyrosine kinase enzyme assay, JAK2 kinase domain; assay type: biochemical; details: read-out: JAK2 IC50_nM
# T1 construct: The kinase domain of human JAK2 was amplified; GST (N); made in house; host or cells: Sf9 insect cells (baculovirus)
# In short: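 JAK2 kinase domain expressed in baculovirus/Sf9 and glutathione-affinity purified. Compounds (final […]) pre-incubated 20 min with enzyme in 10 mM HEPES pH 7.5, MgCl2, NaCl, vanadate, 0.1% Tween 20.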
# human JAK3 = target: T2, human JAK3 (Homo sapiens, UniProt P52333); experiment: Alphascreen tyrosine kinase enzyme assay, JAK3 kinase domain; assay type: biochemical; details: read-out: JAK3 IC50_nM
# T2 construct: The kinase domain of human JAK3 was amplified; GST (N); made in house; host or cells: Sf9 insect cells (baculovirus)
# T2 sequence (P52333 822-1111 limits assumed): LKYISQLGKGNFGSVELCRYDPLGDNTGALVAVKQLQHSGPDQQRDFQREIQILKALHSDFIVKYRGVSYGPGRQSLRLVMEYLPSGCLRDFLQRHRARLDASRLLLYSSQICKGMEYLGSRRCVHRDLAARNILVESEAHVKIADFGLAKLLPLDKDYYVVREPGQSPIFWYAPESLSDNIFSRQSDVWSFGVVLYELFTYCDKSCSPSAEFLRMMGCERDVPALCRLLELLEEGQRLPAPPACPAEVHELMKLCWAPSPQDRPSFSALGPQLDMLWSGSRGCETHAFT
# In short: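 GST-affinity-purified human JAK3 kinase domain (baculovirus/Sf9) was pre-incubated 20 min with compound ([…]) in HEPES pH 7.5 buffer with MgCl2, vanadate and Tween 20. Biotinylated peptide substrate ([…]) and ATP were then added; phosphotyrosine was detected by AlphaScreen PY100 acceptor and streptavidin donor beads after 2–3 h.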
# [1] = target: T3, BaF3 TELJAK2 cells (BafT_J2) (Homo sapiens, UniProt O60674); experiment: Cellular screening, BaF3 TEL:JAK2 cells, Alamar Blue; assay type: cell-based; details: 40 hr, read-out: BafT_J2 IC50_nM
# T3 construct: fused on or other part: TEL (ETV6) N-terminal part, coding nucleotides 1-487, serves as the oligomerising partner; It is fused through a Sal I site to the JAK2 kinase domain and expressed from pTRE2 in BaF3 cells bearing pTET-off; P41212 (Transcription factor ETV6)
# T3 sequence (O60674 whole entry, change not shown, the tested form may be a part): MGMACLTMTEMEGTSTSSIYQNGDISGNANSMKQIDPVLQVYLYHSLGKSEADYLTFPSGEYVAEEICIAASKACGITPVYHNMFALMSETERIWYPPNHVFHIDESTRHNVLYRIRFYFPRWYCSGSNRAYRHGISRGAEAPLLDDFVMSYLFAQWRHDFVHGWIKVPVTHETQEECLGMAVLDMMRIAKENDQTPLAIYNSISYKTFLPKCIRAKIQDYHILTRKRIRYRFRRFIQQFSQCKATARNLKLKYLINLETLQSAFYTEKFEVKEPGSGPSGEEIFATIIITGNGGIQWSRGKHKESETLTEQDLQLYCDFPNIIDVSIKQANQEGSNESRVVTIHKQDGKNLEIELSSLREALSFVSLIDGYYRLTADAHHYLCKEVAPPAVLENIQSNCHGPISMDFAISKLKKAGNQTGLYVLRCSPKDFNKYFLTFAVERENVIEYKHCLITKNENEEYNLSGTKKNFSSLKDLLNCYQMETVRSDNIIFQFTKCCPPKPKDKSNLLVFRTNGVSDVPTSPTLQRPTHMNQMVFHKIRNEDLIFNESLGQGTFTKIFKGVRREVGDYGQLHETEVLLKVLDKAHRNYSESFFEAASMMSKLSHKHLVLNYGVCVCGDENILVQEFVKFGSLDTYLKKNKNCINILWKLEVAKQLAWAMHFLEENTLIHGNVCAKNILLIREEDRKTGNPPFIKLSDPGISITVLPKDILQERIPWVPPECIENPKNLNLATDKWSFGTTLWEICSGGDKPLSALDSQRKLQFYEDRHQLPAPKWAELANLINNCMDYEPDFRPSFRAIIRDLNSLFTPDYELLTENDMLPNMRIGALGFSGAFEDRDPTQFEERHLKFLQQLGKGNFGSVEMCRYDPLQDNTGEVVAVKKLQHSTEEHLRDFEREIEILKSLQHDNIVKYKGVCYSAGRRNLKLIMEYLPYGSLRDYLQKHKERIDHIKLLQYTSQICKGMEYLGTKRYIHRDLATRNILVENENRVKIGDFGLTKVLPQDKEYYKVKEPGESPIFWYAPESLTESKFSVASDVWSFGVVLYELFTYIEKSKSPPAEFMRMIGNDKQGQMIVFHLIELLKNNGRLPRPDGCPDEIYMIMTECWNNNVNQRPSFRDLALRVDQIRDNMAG
# In short: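 Tet-off BaF3 cells carrying a TEL (nt 1-487)–JAK2 kinase-domain fusion, grown factor-independently in DMEM with 10% Tet-approved FBS without WEHI 3B medium. Compounds were diluted to 20 μM in screening plates, and cells (50,000–200,000 cell/mL at 1.1×) were incubated 40 hr at 37 °C, 5% CO2. Alamar Blue was then added for 4-6 hours; read at 544 nm.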
# BaF3 wild-type cells = experiment: Cellular screening, BaF3 wild-type cells, Alamar Blue; assay type: cell-based; details: Mus musculus, 40 hr, read-out: BAF3wt IC50_nM
# In short: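 Compounds, screened from dilution plates at 20 μM, were added as 10× final stocks to cells grown in DMEM/10% FCS/10% WEHI 3B conditioned medium. Cells were seeded at 1.1× final (50,000–200,000 cells/mL) and incubated 40 hr at 37° C, 5% CO2. Viability was read at 544 nm after a further 4–6 hours with Alamar Blue.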
# CTLL2 = experiment: Cellular screening, CTLL2 cells, Alamar Blue; assay type: cell-based; details: Mus musculus, CTLL-2, read-out: CTLL2 IC50_nM
# In short: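 Viability is read with Alamar Blue at 544 nm, the dye added for the final 4-6 hours. Compounds were incubated for 40 hr with CTLL2 cells taken from late-log-phase culture, at 37° C in 5% CO2.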
# T1 sequence (O60674 849-1124 limits assumed): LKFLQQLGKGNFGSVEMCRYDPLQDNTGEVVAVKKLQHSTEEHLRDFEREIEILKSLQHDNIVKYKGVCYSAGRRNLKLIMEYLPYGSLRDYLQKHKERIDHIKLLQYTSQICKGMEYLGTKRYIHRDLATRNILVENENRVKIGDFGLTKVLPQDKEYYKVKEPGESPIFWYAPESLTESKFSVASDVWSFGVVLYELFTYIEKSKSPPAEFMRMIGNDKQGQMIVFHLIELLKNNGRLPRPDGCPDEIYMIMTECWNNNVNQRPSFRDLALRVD
Structure (SMILES),IC50 (human JAK2),IC50 (human JAK3),GI50 [1],IC50 (BaF3 wild-type cells),IC50 (CTLL2)
"C=CC(=O)Nc1ccc(Sc2nc(Nc3ccc(N4CCOCC4)cc3)ncc2C)c(Cl)c1C [Compound 171, N-(3-chloro-2-methyl-4-(5-methyl-2-(4-morpholinophenylao)pyrimidin-4-ylthio)phenyl)acrylamide]",> 1 µM,< 0.1 µM,> 20 µM,> 20 µM,< 20 µM
"C=CC(=O)Nc1ccc(Sc2ccnc(Nc3ccc(S(=O)(=O)N4CCOCC4)c(OC)c3)n2)cc1 [Compound 373, N-(4-(2-(3-methoxy-4-(morpholinosulfonyl)phenylao)pyrimidin-4-ylthio)phenyl)acrylamide]",> 1 µM,< 0.1 µM,< 5 µM,< 5 µM,< 5 µM
"Cc1cnc(Nc2ccc(N3CCOCC3)cc2)nc1Sc1ccc(N2C(=O)CCC2=O)cc1 [Compound 384, 1-(4-(5-methyl-2-(4-morpholinophenylao)pyrimidin-4-ylthio)phenyl)pyrrolidine-2,5-dione]",< 0.5 µM,< 0.1 µM,> 20 µM,> 20 µM,> 20 µM
"C=CC(=O)Nc1ccc(Sc2nc(Nc3ccc(OC)c(O)c3)ncc2C)cc1 [Compound 283, N-(4-(2-(3-hydroxy-4-methoxyphenylao)-5-methylpyrimidin-4-ylthio)phenyl)acrylamide]",> 1 µM,< 0.1 µM,< 20 µM,< 20 µM,< 1 µM
"Cc1cnc(Nc2ccc(N3CCOCC3)cc2)nc1Sc1ccc(NC(=O)/C(Br)=C\C(=O)O)cc1 [Compound 381, (E)-3-bromo-4-(4-(5-methyl-2-(4-morpholinophenylao)pyrimidin-4-ylthio)phenylao)-4-oxobut-2-enoic acid]",> 1 µM,< 0.5 µM,> 20 µM,> 20 µM,< 20 µM
"c1cn(Cc2ccc(Sc3ccnc(Nc4ccc(N5CCOCC5)cc4)n3)cc2)cn1 [Compound 127, 4-(4-((1H-imidazol-1-yl)methyl)phenylthio)-N-(4-morpholinophenyl)pyrimidin-2-ae]",< 1 µM,< 0.5 µM,< 20 µM,> 20 µM,< 20 µM
"CCOC(=O)c1nccn1Cc1ccc(Sc2ccnc(Nc3ccc(N4CCOCC4)cc3)n2)cc1 [Compound 148, ethyl 1-(4-(2-(4-morpholinophenylao)pyrimidin-4-ylthio)benzyl)-1H-imidazole-2-carboxylate]",> 1 µM,< 0.5 µM,< 20 µM,< 20 µM,< 20 µM
"C=CC(=O)Nc1ccc(Sc2nc(Nc3cccc(O)c3)ncc2C)cc1 [Compound 281, N-(4-(2-(3-hydroxyphenylao)-5-methylpyrimidin-4-ylthio)phenyl)acrylamide]",> 1 µM,< 0.1 µM,< 20 µM,< 20 µM,< 1 µM
"C=CC(=O)Nc1ccc(Sc2ccnc(Nc3ccc(Cl)cc3)n2)cc1 [Compound 353, N-(4-(2-(4-chlorophenylao)pyrimidin-4-ylthio)phenyl)acrylamide]",> 1 µM,< 0.1 µM,< 20 µM,> 20 µM,< 5 µM
"C=C(CN1CCOCC1)C(=O)Nc1cccc(Sc2ccnc(Nc3ccc(N4CCOCC4)cc3)n2)c1 [Compound 328, 2-(morpholinomethyl)-N-(3-(2-(4-morpholinophenylao)pyrimidin-4-ylthio)phenyl)acrylamide]",> 1 µM,< 0.1 µM,< 1 µM,< 5 µM,< 5 µM
"C=CC(=O)Nc1ccc(Sc2ccnc(Nc3cccc(C(=O)OC)c3)n2)cc1 [Compound 356, methyl 3-(4-(4-acrylamidophenylthio)pyrimidin-2-ylao)benzoate]",> 1 µM,< 0.1 µM,< 20 µM,< 20 µM,< 5 µM
"C=CC(=O)Nc1ccc(Sc2ccnc(Nc3cccc(N4CCCC4)c3)n2)cc1 [Compound 355, N-(4-(2-(3-(pyrrolidin-1-yl)phenylao)pyrimidin-4-ylthio)phenyl)acrylamide]",> 1 µM,< 0.1 µM,< 20 µM,< 20 µM,< 5 µM
"Cc1cnc(Nc2ccc(N3CCOCC3)cc2)nc1Sc1ccc2c(c1)CCCN2 [Compound 166, 5-methyl-N-(4-morpholinophenyl)-4-(1,2,3,4-tetrahydroquinolin-6-ylthio)pyrimidin-2-ae]",> 1 µM,< 0.5 µM,< 5 µM,< 20 µM,< 20 µM
"C=CC(=O)Nc1ccc(Sc2ccnc(Nc3ccccc3O)n2)cc1 [Compound 279, N-(4-(2-(2-hydroxyphenylao)pyrimidin-4-ylthio)phenyl)acrylamide]",> 1 µM,< 0.1 µM,< 20 µM,< 20 µM,< 20 µM
"C=CC(=O)Nc1cccc(Nc2nccc(Sc3cccc(OC)c3)n2)c1 [Compound 31, N-(3-(4-(3-methoxyphenylthio)pyrimidin-2-ylao)phenyl)acrylamide]",> 1 µM,< 0.1 µM,< 20 µM,< 20 µM,< 1 µM
"C=CC(=O)Nc1ccc(Sc2ccnc(Nc3cccc(S(=O)(=O)NCc4ccccc4)c3)n2)cc1 [Compound 366, N-(4-(2-(3-(N-benzylsulfamoyl)phenylao)pyrimidin-4-ylthio)phenyl)acrylamide]",> 1 µM,< 0.1 µM,< 20 µM,< 20 µM,< 5 µM
"C=CC(=O)Nc1ccc(Sc2ccnc(Nc3ccc(N4CCOCC4)cc3)n2)c(Cl)c1C [Compound 161, N-(3-chloro-2-methyl-4-(2-(4-morpholinophenylao)pyrimidin-4-ylthio)phenyl)acrylamide]",> 1 µM,< 0.1 µM,> 20 µM,> 20 µM,< 5 µM
"C=CC(=O)Nc1ccc(Sc2nc(Nc3ccc(CNS(C)(=O)=O)cc3)ncc2C)cc1 [Compound 294, N-(4-(5-methyl-2-(4-(methylsulfonamidomethyl)phenylao)pyrimidin-4-ylthio)phenyl)acrylamide]",> 1 µM,< 0.1 µM,> 20 µM,> 20 µM,< 1 µM
"CCOC(=O)/C=C\C(=O)Nc1ccc(Sc2nc(Nc3ccc(N4CCOCC4)cc3)ncc2C)cc1 [Compound 388, (Z)-ethyl 4-(4-(5-methyl-2-(4-morpholinophenylao)pyrimidin-4-ylthio)phenylao)-4-oxobut-2-enoate]",< 0.5 µM,< 0.1 µM,< 5 µM,< 5 µM,< 5 µM
"C=CC(=O)Nc1ccc(Sc2ccnc(Nc3ccc(S(=O)(=O)N4CCOCC4)cc3)n2)cc1 [Compound 367, N-(4-(2-(4-(morpholinosulfonyl)phenylao)pyrimidin-4-ylthio)phenyl)acrylamide]",> 1 µM,< 0.1 µM,< 20 µM,< 20 µM,< 20 µM
"Cc1cnc(Nc2ccc(N3CCOCC3)cc2)nc1Sc1ccc(NC(=O)/C=C/Cl)cc1 [Compound 343, (E)-3-chloro-N-(4-(5-methyl-2-(4-morpholinophenylao)pyrimidin-4-ylthio)phenyl)acrylamide]",> 1 µM,< 0.1 µM,< 20 µM,< 20 µM,< 5 µM
"Cc1cnc(Nc2ccc(N3CCOCC3)cc2)nc1Sc1ccc(NC(=O)COCC(=O)O)cc1 [Compound 188, 2-(2-(4-(5-methyl-2-(4-morpholinophenylao)pyrimidin-4-ylthio)phenylao)-2-oxoethoxy)acetic acid]",< 0.5 µM,< 0.1 µM,> 20 µM,> 20 µM,> 20 µM
"O=C(/C=C/Cl)Nc1ccc(Sc2ccnc(Nc3ccc(N4CCOCC4)cc3)n2)cc1 [Compound 342, (E)-3-chloro-N-(4-(2-(4-morpholinophenylao)pyrimidin-4-ylthio)phenyl)acrylamide]",> 1 µM,< 0.1 µM,> 20 µM,> 20 µM,< 20 µM
"Cc1cnc(Nc2ccc(N3CCOCC3)cc2)nc1Sc1ccc(C#N)cc1 [Compound 136, 4-(5-methyl-2-(4-morpholinophenylao)pyrimidin-4-ylthio)benzonitrile]",> 1 µM,< 0.5 µM,> 20 µM,> 20 µM,> 20 µM
